Drawing on patent US5591714A, “Derivatives of A82846” (priority 1994, dated 1997), this text covers MIC for three compounds.

In brackets after ≈: the same amount, converted by molar mass. Bounds are passed on as bounds.

Format in all cases: cell-based
One experiment concerns Escherichia coli EC14. The experiment in a line: MIC, standard agar-dilution assay. The procedure:
(§1) The formula I compounds have in vitro and in vivo activity against Gram-positive pathogenic bacteria. The MIC's were determined using a standard agar-dilution assays.

Another experiment concerns Escherichia coli N10. The experiment in a line: MIC, standard agar-dilution assay. As to the method:
as §1

Another experiment concerns Escherichia coli TEM. Kind of experiment: MIC, standard agar-dilution assay. As to the method: as §1
Experiment [1] concerns Haemophilus influenzae 76. The experiment in a line: MIC, standard agar-dilution assay. As to the method: as §1
In experiment [2] the test system is Haemophilus influenzae C.L. The experiment in a line: MIC, standard agar-dilution assay. The procedure:
as §1

The test system of experiment [3] is Klebsiella pneumoniae KAE. The experiment in a line: MIC, standard agar-dilution assay. The procedure: as §1
Experiment [4] relates to Klebsiella pneumoniae X26. Kind of experiment: MIC, standard agar-dilution assay. As to the method:
as §1

Experiment [5] concerns Klebsiella pneumoniae X68. The experiment in a line: MIC, standard agar-dilution assay. As to the method:
as §1

In experiment [6] the test system is Staphylococcus aureus NRRL X1.1. Kind of experiment: MIC, standard agar-dilution assay. The procedure: as §1
Experiment [7] has as its system Staphylococcus aureus V41. Kind of experiment: MIC, standard agar-dilution assay. As to the method:
as §1

The subject of experiment [8] is Staphylococcus aureus X400. Kind of experiment: MIC, standard agar-dilution assay. As to the method:
as §1

The subject of experiment [9] is Staphylococcus epidermidis 222. Kind of experiment: MIC, standard agar-dilution assay. The procedure:
as §1

The test system of experiment [10] is Staphylococcus epidermidis EPI270. The experiment in a line: MIC, standard agar-dilution assay. The procedure:
as §1

In experiment [11] the test system is Streptococcus pyogenes C203. Kind of experiment: MIC, standard agar-dilution assay. The procedure:
as §1

Experiment [12] relates to Staphylococcus aureus S13E. The procedure: as §1
The subject of experiment [13] is Streptococcus pneumoniae Park 1. The procedure:
as §1

The next experiment deals with Enterococcus faecium X66. Kind of experiment: MIC, standard agar-dilution assay. As to the method:
as §1
^b Formerly Streptococcus faecium X66

For experiment [14], the system named is Enterococcus faecalis 2041. The experiment in a line: MIC, standard agar-dilution assay. As to the method: as §1
^c Formerly Streptococcus faecalis 2041

Consider `CCCCCNC1(C)CC(OC2c3ccc(cc3)Oc3cc4cc(c3OC3OC(CO)C(O)C(O)C3O)Oc3ccc(cc3Cl)C(O)C(NC(=O)C(CC(C)C)NC)C(=O)NC(CC(N)=O)C(=O)NC4C(=O)NC3C(=O)NC2C(=O)NC(C(=O)O)c2cc(O)cc(O)c2-c2cc3ccc2O)OC(C)C1O` (stereo not drawn) [Compound 71], for which the MIC (in the experiment with Escherichia coli EC14; against Escherichia coli N10; in the experiment with Escherichia coli TEM; in [1]; in [2]; in experiment [3]) was over 128 µg/mL in each case. Besides, the MIC in experiment [4] is over 128 µg/mL; in [5], over 128 µg/mL; in experiment [6], 2 µg/mL (≈ 1.35 µM); in [7], 2 µg/mL (≈ 1.35 µM); in [8] it was 4 µg/mL (≈ 2.69 µM); in experiment [9], 4 µg/mL (≈ 2.69 µM). The MIC in experiment [10] was 1 µg/mL (≈ 0.673 µM); in experiment [11], 2 µg/mL (≈ 1.35 µM); in experiment [12] it was 2 µg/mL (≈ 1.35 µM); in [13] it was 2 µg/mL (≈ 1.35 µM); with Enterococcus faecium X66, 8 µg/mL (≈ 5.39 µM); in [14], 8 µg/mL (≈ 5.39 µM).
Regarding `CCCCCNC1(C)CC(OC2c3ccc(c(Cl)c3)Oc3cc4cc(c3OC3OC(CO)C(O)C(O)C3O)Oc3ccc(cc3Cl)C(O)C(NC(=O)C(CC(C)C)NC)C(=O)NC(CC(N)=O)C(=O)NC4C(=O)NC3C(=O)NC2C(=O)NC(C(=O)O)c2cc(O)cc(O)c2-c2cc3ccc2O)OC(C)C1O` (stereo not drawn) [Compound 77], the MIC against Escherichia coli EC14 is over 128 µg/mL; with Escherichia coli N10, over 128 µg/mL; in the experiment on Escherichia coli TEM, over 128 µg/mL; in experiment [1], 128 µg/mL (≈ 84.2 µM); in experiment [2], 128 µg/mL (≈ 84.2 µM); in [3], over 128 µg/mL. Further, the MIC in experiment [4] is over 128 µg/mL; in experiment [5], over 128 µg/mL; in experiment [6], “.5 µg/mL”; in [7], “.5 µg/mL”; in experiment [8], 1 µg/mL (≈ 0.658 µM); in experiment [9], 1 µg/mL (≈ 0.658 µM). Moreover, the MIC in experiment [10] was 8 µg/mL (≈ 5.27 µM); in [11], “.25 µg/mL”; in experiment [12], “.5 µg/mL”; in experiment [13], “.5 µg/mL”; against Enterococcus faecium X66, 2 µg/mL (≈ 1.32 µM); in experiment [14] it was 2 µg/mL (≈ 1.32 µM).
Turning to `CCCCCNC1(C)CC(OC2c3ccc(cc3)Oc3cc4cc(c3O)Oc3ccc(cc3Cl)C(O)C(NC(=O)C(CC(C)C)NC)C(=O)NC(CC(N)=O)C(=O)NC4C(=O)NC3C(=O)NC2C(=O)NC(C(=O)O)c2cc(O)cc(O)c2-c2cc3ccc2O)OC(C)C1O` (stereo not drawn) [Compound 74], the MIC (in the experiment on Escherichia coli EC14; in the experiment with Escherichia coli N10; against Escherichia coli TEM; in experiment [1]; in experiment [2]; in experiment [3]) was over 128 µg/mL throughout. The MIC in experiment [4] was over 128 µg/mL; in [5] it was over 128 µg/mL; in experiment [6], 4 µg/mL (≈ 3.02 µM); in [7], 4 µg/mL (≈ 3.02 µM); in experiment [8] it was 4 µg/mL (≈ 3.02 µM); in experiment [9] it was 4 µg/mL (≈ 3.02 µM). Besides, the MIC came out at 2 µg/mL (≈ 1.51 µM) in experiment [10]; 4 µg/mL (≈ 3.02 µM) in [11]; 4 µg/mL (≈ 3.02 µM) in experiment [12]; 4 µg/mL (≈ 3.02 µM) in experiment [13]; 8 µg/mL (≈ 6.05 µM) in the experiment with Enterococcus faecium X66; 8 µg/mL (≈ 6.05 µM) in experiment [14].
